Tests used:
[1] = platinum concentration in dorsal root ganglia (ICP-MS); assay type: in vivo, rat; settings: oxaliplatin 4 mg/kg i.p. twice a week; 4 and 8 wks
Procedure: Lumbar L4-L6 DRG were isolated from each group on days 26 and 54 after oxaliplatin treatment. The tissue samples were pretreated by heating in an acid solution, and the tissue platinum concentration was analyzed using an ICP-MS system (Agilent 7700s; Agilent Technologies, Inc., Santa Clara, CA, USA). The lower limit for quantification of platinum in tissue was 2.0 ng.

[2] = test system: oxaliplatin-treated rats; experiment: wire hang test of neuromuscular strength; assay type: in vivo, rat; settings: wire screen inclined to 90° or 180° for 20 seconds; among groups
Procedure: (§1) To establish the oxaliplatin-induced chronic neuropathy rat model, oxaliplatin (4 mg/mL/kg) or its vehicle (5% glucose solution) was injected intraperitoneally twice weekly for 8 wks. Rats were orally administered GJG (0.3 or 1.0 g/10 mL/kg) or DW 5 times a week for 8 wks.
(§2) A rotarod test was carried out on day 57 to evaluate if chronic treatment of oxaliplatin had any effect on motor coordination. Rats were placed on the rotarod (SN-497; Shinano-Seisakusho Ltd., Tokyo, Japan), which is a horizontal rod 10 cm diameter, with their heads directed against the direction of rotation at 5 rpm. The time that the animal stayed on the rod (up to maximum of 120 seconds) was recorded. A wire hang test was performed for assessment of neuromuscular strength on day 53. Animals were placed on the wire net that was held horizontally. The wire screen was first inclined at 90 ° for 20 seconds, then turned to 180 ° for a further 20 seconds. The latency to fall from the wire net inclined at the respective angles was recorded.

[3] = set-up: method as in PMID 11223836; settings: rats, 5 mg/kg oxaliplatin intraperitoneally; cited from earlier work
[4] = test system: oxaliplatin-treated rats; experiment: rotarod test of motor coordination; assay type: in vivo, rat; settings: 8 wks; among the tested groups
Procedure: as §1, §2

[5] = test system: oxaliplatin-treated rats; experiment: hot plate test for heat hypoalgesia in oxaliplatin-treated rats; assay type: in vivo, rat
Procedure: as §1
(§3) Cold hyperalgesia induced by oxaliplatin was assessed by an acetone test[10]. The acetone test was done on days 24, 38 and 52. Briefly, 250 μL of acetone (Wako Pure Chemical Ltd., Osaka, Japan) was sprayed onto the plantar skin of the right hind paw, and the time spent in elevation and licking of the stimulated hind paw for 60 seconds was measured. Acetone was applied twice at a 15-minute interval, and the average withdrawal response time was calculated. A hot plate test was performed for assessment of thermal hyperalgesia on days 25, 39 and 54. Rats were placed in a Hot/Cold Plate Analgesia Meter (MK-350HC; Muromachi Kikai Co., Ltd., Tokyo, Japan) that kept the temperature of the plate at 50 °C. A cut-off time of 45 seconds was set to prevent tissue damage. The latency of withdrawal response, such as licking and flinching of each hind paw, was recorded.

[6] = test system: rat sciatic nerve; experiment: histological analysis of the sciatic nerve (electron microscopy, ratio of degenerated myelinated fibers); assay type: in vivo; settings: oxaliplatin-treated group; 8 wks; n = 3
Procedure: as §1
The rats were deeply anesthetized with pentobarbital (50 mg/kg), and transcardially perfused with phosphate-buffered saline (pH 7.4), followed by 2.5% phosphate-buffered glutaraldehyde. The sciatic nerves were rapidly dissected, and the samples were kept overnight in the same fixative at 4 °C. The fixed fibers were post-fixed with 1% osmium tetroxide solution for 3 hours, dehydrated in a graded alcohol series, and embedded in Epon815. For light microscopy, semi-thin sections were cut from each block and stained with toluidine blue. The stained sections were observed using a light microscope (BX60, Olympus Corp., Tokyo, Japan). For electron microscopy, ultra-thin sections were cut and stained with uranyl acetate and lead citrate. […] The numbers of normal- and degenerated-myelinated nerve fibers were counted in the area of 0.05 mm^2 (0.01 mm^2 × 5 areas), and the ratio of degenerated nerve fibers was calculated as the percentage of total nerve fibers in each group. In this study, the pathological experts who investigate myelination or demyelination analyzed light and electron microscopy in detail.

[7] = test system: neuro2A cells; settings: oxaliplatin 30–300 μM, 1 hour
Procedure: Mouse neuroblastoma Neuro2A cells (ATCC-CCL 131) were grown in Dulbecco’s MEM (Life Technologies) containing 10% fetal bovine serum with 100 units/mL penicillin and 100 mg/mL streptomycin (Life Technologies). The cells were maintained at 37 °C in a humidified atmosphere with 5% CO2 and 95% air. For measurement of ROS generation, the cells were seeded at 2.0 × 10^4 cells/well in poly-D-lysine-coated 96-well plates (BD Falcon, Franklin Lakes, NJ, USA). After plating, the cells were maintained in Dulbecco’s MEM (without phenol red or serum, Life Technologies) with 100 units/mL penicillin and 100 mg/mL streptomycin for more than 16 hours until subsequent experiments. Intracellular ROS generation caused by oxaliplatin in neuro2A cells was determined using CM-H2DCFDA. […] The cells were incubated for 30 minutes with 10 μM CM-H2DCFDA at 37 °C, followed by treatment of drugs for 1 hour. Fluorescence intensity was measured using a microplate reader (Infinite M200; Tecan Japan Co., Ltd., Kanagawa, Japan) at 485 nm (excitation) /520 nm (emission).

[8] = test system: oxaliplatin-treated rats; experiment: acetone test for cold hyperalgesia in oxaliplatin-treated rats; assay type: in vivo, rat; settings: oxaliplatin 4 mg/kg i.p. twice weekly; 4, 6 and 8 wks; vs naïve control
Procedure: as §1, §3

[9] = test system: oxaliplatin-treated rats; experiment: peripheral blood flow by two-dimensional laser speckle Blood Flow Imager; assay type: in vivo, rat; settings: for peripheral blood flow, Head / peripheral blood flow, Left ear / peripheral blood flow, Left forelimb / peripheral blood flow, Left hindlimb / peripheral blood flow, Right ear / peripheral blood flow, Right forelimb / peripheral blood flow, Right hindlimb / peripheral blood flow, Tail: ratio to naïve rats
Procedure: as §1
Peripheral blood flow was measured using a two-dimensional laser speckle Blood Flow Imager (Omegazone OZ-2; Omegawave, Inc., Tokyo, Japan). Rats were anesthetized with isoflurane for induction and urethane intraperitoneally for maintenance. Body temperature was maintained at 37.5 ± 0.5 °C using a heating pad. Blood pressure and heart rate were concurrently measured by a tail-cuff apparatus (BP-98A-L; Softron, Tokyo, Japan). Peripheral blood flow in the head, ears, forelimbs, hindlimbs and tail of rats was measured at four defined time points (day 3, 10, 26 and 54). Values were analyzed by analysis software (LIA-V210, Softron). Real image and color-coded images were obtained in high-resolution mode (639 × 480 pixels; 2 images/second). The blood flow value in each peripheral site is expressed as mean blood flow in the region of interest (ROI). The ratio of blood flow rate of treated animals to naïve animals was calculated (%).

[10] = day 3, L-OHP 4 mg/kg i.p. twice weekly
[11] = day 10, L-OHP 4 mg/kg i.p. twice weekly

SMILES: O=C1[O][Pt]2([NH][C@@H]3CCCC[C@H]3[NH]2)[O]C1=O [oxaliplatin]
- platinum accumulation in the rat DRG [1]: directly correlated with the duration of oxaliplatin treatment
- muscle strength (wire screen hanging test) [2]: no significant differences
- time for which maximum plasma platinum was maintained [3]: 2 h
- time to maximum plasma concentration of platinum [3]: approximately 90 minutes
- motor coordination (rotarod test) [4]: no significant differences
- latency of withdrawal to heat stimulation (hot plate) ([5]; 4 wks after oxaliplatin treatment, among all groups): no significant difference
- latency of withdrawal to heat stimulation (hot plate) ([5]; oxaliplatin vs naïve control, 6 wks (p < 0.05) and 8 wks (p < 0.01)): gradually increased
- ratio of degenerated axons in total myelinated nerve fibers [6]: 8.8 ± 2.4%
- ROS generation in neuro2A cells [7]: increased ROS generation
- duration of withdrawal responses to cold stimulation by acetone [8]: significantly increased
- peripheral blood flow, Head ([9]; 4 weeks, L-OHP + DW): 89.9 ± 2.6 %
- peripheral blood flow, Left ear ([9]; 4 weeks, L-OHP + DW): 95.7 ± 2.9%
- peripheral blood flow, Left forelimb ([9]; 4 weeks, L-OHP + DW): 87.3 ± 2.8 %
- peripheral blood flow, Left hindlimb ([9]; 4 weeks, L-OHP + DW): 82.0 ± 4.5 %
- peripheral blood flow, Right ear ([9]; 4 weeks, L-OHP + DW): 91.2 ± 3.4%
- peripheral blood flow, Right forelimb ([9]; 4 weeks, L-OHP + DW): 89.0 ± 2.7 %
- peripheral blood flow, Right hindlimb ([9]; 4 weeks, L-OHP + DW): 88.3 ± 5.1%
- peripheral blood flow, Tail ([9]; 4 weeks, L-OHP + DW): 100.1 ± 2.2%
- peripheral blood flow, Head ([9]; 8 weeks, L-OHP + DW): 93.5 ± 3.8%
- peripheral blood flow, Left ear ([9]; 8 weeks, L-OHP + DW): 91.4 ± 3.2%
- peripheral blood flow, Left forelimb ([9]; 8 weeks, L-OHP + DW): 97.2 ± 1.5%
- peripheral blood flow, Left hindlimb ([9]; 8 weeks, L-OHP + DW): 95.7 ± 4.7%
- peripheral blood flow, Right ear ([9]; 8 weeks, L-OHP + DW): 92.3 ± 4.1%
- peripheral blood flow, Right forelimb ([9]; 8 weeks, L-OHP + DW): 100.3 ± 2.0%
- peripheral blood flow, Right hindlimb ([9]; 8 weeks, L-OHP + DW): 102.3 ± 4.4%
- peripheral blood flow, Tail ([9]; 8 weeks, L-OHP + DW): 96.3 ± 3.3%
- peripheral blood flow, Head [9, 10]: 108.3 ± 2.9%
- peripheral blood flow, Left ear [9, 10]: 104.8 ± 4.3%
- peripheral blood flow, Left forelimb [9, 10]: 97.5 ± 3.1%
- peripheral blood flow, Left hindlimb [9, 10]: 110.2 ± 0.9%
- peripheral blood flow, Right ear [9, 10]: 101.5 ± 5.6%
- peripheral blood flow, Right forelimb [9, 10]: 100.8 ± 1.9%
- peripheral blood flow, Right hindlimb [9, 10]: 114.2 ± 2.1%
- peripheral blood flow, Tail [9, 10]: 98.8 ± 2.5%
- peripheral blood flow, Head [9, 11]: 91.9 ± 4.5%
- peripheral blood flow, Left ear [9, 11]: 85.3 ± 2.2 %
- peripheral blood flow, Left forelimb [9, 11]: 93.1 ± 3.8%
- peripheral blood flow, Left hindlimb [9, 11]: 85.8 ± 5.0%
- peripheral blood flow, Right ear [9, 11]: 87.7 ± 2.0 %
- peripheral blood flow, Right forelimb [9, 11]: 91.4 ± 3.1%
- peripheral blood flow, Right hindlimb [9, 11]: 86.5 ± 6.9%
- peripheral blood flow, Tail [9, 11]: 90.9 ± 3.4%
- mean blood flow in the fore- and hindlimbs ([9]; oxaliplatin, 4 wks): significantly decreased

Reference: paper PMC4635352, “Preventive effect of oral goshajinkigan on chronic oxaliplatin-induced hypoesthesia in rats” (Scientific Reports, 2015)
